Measured values as given in paper doi:10.1101/2023.08.10.552651v1 (biorxiv, 2023).

Legend:
Assay in all cases: isothermal titration calorimetry
Type in all cases: binding
Details in all cases: Tris-HCl, 150 mM NaCl, pH 7.9-8.0, 20 °C; 30 µM trimer; one-site model
[1] = target: ScSbtB (SbtB) (Synechocystis sp. PCC 6803, UniProt P73954, R43A)
[2] = target: ScSbtB (SbtB) (Synechocystis sp. PCC 6803, UniProt P73954, R46A)
[3] = target: ScSbtB (SbtB) (Synechocystis sp. PCC 6803, UniProt P73954, K40A)
ScSbtB (SbtB) (Synechocystis sp. PCC 6803, UniProt P73954, K40A), sequence (P73954 2-110 K40A): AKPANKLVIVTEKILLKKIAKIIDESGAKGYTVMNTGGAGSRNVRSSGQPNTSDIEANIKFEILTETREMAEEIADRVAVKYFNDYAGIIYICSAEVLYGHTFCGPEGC

ScSbtB (SbtB) (Synechocystis sp. PCC 6803, UniProt P73954, R46A), sequence (P73954 2-110 R46A): as the sequence (P73954 2-110 K40A) above, with A39K, R45A counted along it
ScSbtB (SbtB) (Synechocystis sp. PCC 6803, UniProt P73954, R43A), sequence (P73954 2-110 R43A): as the sequence (P73954 2-110 K40A) above, with A39K, R42A counted along it

SMILES | Kd [1] | Kd [2] | Kd [3]
Nc1ncnc2c1ncn2[C@@H]1O[C@H](COP(=O)(O)OP(=O)(O)O)[C@@H](O)[C@H]1O [ADP] | 472 µM | 435 µM | 877 µM
Nc1ncnc2c1ncn2[C@@H]1O[C@H](COP(=O)(O)O)[C@@H](O)[C@H]1O [AMP] |  | 94.3 µM | 
Nc1ncnc2c1ncn2[C@@H]1O[C@H](COP(=O)(O)OP(=O)(O)OP(=O)(O)O)[C@@H](O)[C@H]1O [ATP] | 213 µM |  | 357 µM
